Measurements published in PMC5578373, “Inhibitory Kappa B Kinase α (IKKα) Inhibitors That Recapitulate Their Selectivity in Cells against Isoform-Related Biomarkers” (Journal of Medicinal Chemistry, 2017).
Like-named read-outs stand apart in the source and are kept apart here.

Legend:
IKKα = biological target: T1, IKKα (Homo sapiens, UniProt O15111); test: DELFIA kinase assay, IKKα; assay type: biochemical; conditions: for IKKα inhibitory activity: SAR discussion; for Ki: apparent Ki (Cheng–Prusoff), 40 μM ATP, three independent experiments, read-out: IKKα (Ki ± SEM μM)
T1 construct: purchased Millipore, Dundee, UK
T1 sequence (O15111 1-745): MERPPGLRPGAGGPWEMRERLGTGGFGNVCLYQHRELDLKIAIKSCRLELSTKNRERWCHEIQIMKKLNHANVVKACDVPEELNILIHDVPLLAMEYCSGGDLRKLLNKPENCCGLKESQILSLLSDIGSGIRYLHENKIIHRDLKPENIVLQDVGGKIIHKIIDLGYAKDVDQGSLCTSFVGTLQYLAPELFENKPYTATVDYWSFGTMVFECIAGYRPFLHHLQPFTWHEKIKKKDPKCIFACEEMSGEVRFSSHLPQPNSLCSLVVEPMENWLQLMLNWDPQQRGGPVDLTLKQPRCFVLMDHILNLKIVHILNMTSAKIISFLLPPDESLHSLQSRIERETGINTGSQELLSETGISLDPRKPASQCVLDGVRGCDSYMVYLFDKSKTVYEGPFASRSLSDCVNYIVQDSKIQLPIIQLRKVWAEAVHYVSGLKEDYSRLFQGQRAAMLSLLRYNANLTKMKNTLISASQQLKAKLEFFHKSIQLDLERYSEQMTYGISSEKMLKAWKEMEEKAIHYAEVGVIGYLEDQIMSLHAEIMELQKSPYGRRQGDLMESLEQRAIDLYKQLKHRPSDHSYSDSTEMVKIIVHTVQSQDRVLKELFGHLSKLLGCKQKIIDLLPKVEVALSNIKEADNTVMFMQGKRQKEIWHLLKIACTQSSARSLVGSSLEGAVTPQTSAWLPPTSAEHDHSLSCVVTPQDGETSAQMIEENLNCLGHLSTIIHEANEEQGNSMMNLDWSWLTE

IKKβ = biological target: T2, IKKβ (Homo sapiens, UniProt O14920); test: DELFIA kinase assay, IKKβ; assay type: biochemical
T2 construct: purchased Millipore, Dundee, UK
T2 sequence (O14920 1-756): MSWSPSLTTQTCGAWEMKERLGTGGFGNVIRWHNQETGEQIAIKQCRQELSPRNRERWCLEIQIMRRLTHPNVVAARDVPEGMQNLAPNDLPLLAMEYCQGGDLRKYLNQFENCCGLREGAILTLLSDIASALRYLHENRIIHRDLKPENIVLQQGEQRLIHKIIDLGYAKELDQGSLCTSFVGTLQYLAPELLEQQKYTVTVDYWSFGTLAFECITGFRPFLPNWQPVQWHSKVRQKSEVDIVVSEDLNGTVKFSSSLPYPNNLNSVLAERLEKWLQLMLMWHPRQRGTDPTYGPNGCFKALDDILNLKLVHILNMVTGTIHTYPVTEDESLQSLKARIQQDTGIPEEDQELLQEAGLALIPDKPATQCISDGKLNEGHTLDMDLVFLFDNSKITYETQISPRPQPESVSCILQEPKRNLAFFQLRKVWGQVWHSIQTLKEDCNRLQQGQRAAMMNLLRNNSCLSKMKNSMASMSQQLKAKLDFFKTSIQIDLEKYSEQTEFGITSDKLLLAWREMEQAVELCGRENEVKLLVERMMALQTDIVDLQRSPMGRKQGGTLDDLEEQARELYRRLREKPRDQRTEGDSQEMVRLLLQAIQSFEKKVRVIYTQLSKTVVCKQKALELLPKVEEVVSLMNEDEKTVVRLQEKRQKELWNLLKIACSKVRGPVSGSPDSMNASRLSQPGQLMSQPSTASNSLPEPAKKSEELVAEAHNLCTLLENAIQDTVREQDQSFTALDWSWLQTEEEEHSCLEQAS
Text: To identify hits that could be developed to exploit the differences between the two isoforms, we screened our in-house compound library compiled of fragments designed to target the common hinge-binding motif found in protein kinases. Using a DELFIA kinase assay kit with minor modifications[29] to measure IKKα and IKKβ inhibitory activity, we identified 2-amino-4-chloro-5-cyanopyrrolo[2,3-d]pyrimidine 4 as our primary hit (Table 1). On the basis of the assumption that the 2-aminopyrrolo[2,3-d]pyrimidine core of compound 4 was binding at the hinge of IKKα, we varied substitution at the 4-position widely. Differences in bulk and polar functionality were incorporated to exploit the greater flexibility in the IKKα ATP binding site and the position of the Asn28 side chain at the back of the pocket.
IKKα and IKKβ inhibitory activity was determined using a dissociation enhanced ligand fluorescent immunoassay (DELFIA) based on the protocol of HTScan IKKβ kinase assay (Cell Signaling Technology, USA).
Recombinant IKKα or IKKβ, 37 nM (Millipore, Dundee, UK), was incubated with IκB-α (Ser32) (New England Biolabs, Hitchin, UK), biotinylated peptide substrate (0.375 μM), and 40 μM ATP in assay buffer (40 mM Tris-HCl (pH 7.5), 20 mM MgCl2, EDTA 1 mM, DTT 2 mM, and BSA 0.01 mg/mL) in a V-well 96-well plate in the presence and absence of test compound. The assay plate was incubated for 60 min at 30 °C, after which the kinase reaction was quenched by the addition of 50 mM EDTA, pH 8. The resulting mixture was transferred to a streptavidin-coated 96-well plate (PerkinElmer, Beaconsfield, UK) and incubated for 1 h at 30 °C to immobilize the substrate peptide. After three washes with wash buffer (0.01 M phosphate buffered saline (PBS), 0.05% Tween-20, pH 7.4), a primary antibody against the phosphorylated substrate (phospho-IκB-α) (Ser32/36) (5A5) mouse mAb (New England Biolabs, Hitchin, UK) (1:1000 dilution with 1% bovine serum albumin (BSA) in wash buffer) was added and incubated at 37 °C for 2 h.
After a further three washes, a secondary europiated antibody (Eu–N1 labeled antimouse IgG, (PerkinElmer, Beaconsfield, UK) diluted 1:500 in 1% BSA/wash buffer) was added and incubated at 30 °C for 30 min. After a further five washes, DELFIA enhancement solution (PerkinElmer, Beaconsfield UK) was added and allowed to incubate for 10 min at room temperature, protected from light, to facilitate the chemifluorescent detection. The relative fluorescence units (RFU) signal were measured on a Wallac Victor 1420 multilabel counter (PerkinElmer, Beaconsfield, UK) in time-resolved fluorescence mode. The counter was set at an excitation wavelength of 340 nm with a 400 μs delay before detecting emitted light at 615 nm. The apparent Ki of the phosphorylated substrate was calculated for each compound using the Cheng–Prusoff equation.

[1] = apparent Ki (Cheng–Prusoff), 40 μM ATP, three independent experiments, read-out: IKKβ (Ki ± SEM μM)

Molecule	IKKα inhibitory activity (IKKα)	also measured
Nc1nc(Cl)c2cc[nH]c2n1 [Compound 63]	inactive	–
N#Cc1c[nH]c2nc(N)nc(-c3cccc(C(N)=O)c3)c12 [Compound 55, 3-(2-Amino-5-cyano-7H-pyrrolo[2,3-d]pyrimdin-4-yl)benzamide]	inactive	IKKβ inhibitory activity (IKKβ; SAR discussion): inactive
N#Cc1c[nH]c2nc(N)nc(N3CCC(S(N)(=O)=O)CC3)c12 [Compound 18, 1-(2-Amino-5-cyano-7H-pyrrolo[2,3-d]pyrimidin-4-yl)piperidine-4-sulfonamide]	active	–
2-Amino-4-(cyclohexylmethylamino)-7H-pyrrolo[2,3-d]pyrimidine-5-carbonitrile [Compound 10]	–	Ki (IKKβ; [1]): > 30 µM; Ki (IKKα): > 30 µM
NC(=O)c1c[nH]c2nc(N)nc(N[C@H]3CC[C@H](O)CC3)c12 [Compound 71, 2-Amino-4-((1R,4R)-4-hydroxycyclohexylamino)-7H-pyrrolo[2,3-d]pyrimidine-5-carboxamide]	attenuated all IKKα inhibitory activity	–
N#Cc1c[nH]c2nc(N)nc(N3CC[C@@H](O)C3)c12 [Compound 24, (R)-2-Amino-4-(3-hydroxypyrrolidin-1-yl)-7H-pyrrolo[2,3-d]pyrimidine-5-carbonitrile]	inactive	–
N#Cc1c[nH]c2nc(N)nc(N[C@H]3CC[C@H](O)CC3)c12 [Compound 28, 2-Amino-4-((1R,4R)-4-hydroxycyclohexylamino)-7H-pyrrolo[2,3-d]pyrimidine-5-carbonitrile]	active and selective against IKKα	–
N#Cc1c[nH]c2nc(N)nc(NC3CCCCC3)c12 [Compound 9, 2-Amino-4-(cyclohexylamino)-7H-pyrrolo[2,3-d]pyrimidine-5-carbonitrile]	–	increase in potency against IKKα (IKKα; from methylamine analogue 7 to cyclohexylamine derivative 9): 5 fold
4-((2-Amino-5-cyano-7H-pyrrolo[2,3-d]pyrimidin-4-yl)amino)benzoic acid [Compound 12]	–	Ki (IKKβ; [1]): > 30 µM; Ki (IKKα): > 30 µM
Nc1nc(-c2ccc(S(N)(=O)=O)cc2)c2cc[nH]c2n1 [Compound 64, 4-(2-Amino-7H-pyrrol[2,3-d]pyrimidin-4-yl)benzenesulfonamide]	–	reduction of activity against IKKα (IKKα; relative to 48 (absence of 5-cyano group)): more than 30 fold
N#Cc1c[nH]c2nc(N)nc(N3CCCCC3)c12 [Compound 17, 2-Amino-4-(piperidin-1-yl)-7H-pyrrolo[2,3-d]pyrimidine-5-carbonitrile]	active	–
N#Cc1c[nH]c2nc(N)nc(N(CCO)C3CCCCC3)c12 [Compound 29, 2-Amino-4-(cyclohexyl(2-hydroxyethyl)amino)-7H-pyrrolo[2,3-d]pyrimidine-5-carbonitrile]	inactive	–
2-Amino-4-(3-hydroxypropylamino)-7H-pyrrolo[2,3-d]pyrimidine-5-carbonitrile [Compound 23]	–	Ki (IKKβ; [1]): > 30 µM; Ki (IKKα): 12.1 ± 6.3 µM
N#Cc1c[nH]c2nc(N)nc(N[C@@H]3CC[C@@H](O)[C@H]3O)c12 (relative stereo) [Compound 30, 2-Amino-4-((1RS,2SR,3RS)-2,3-dihydroxycyclopentylamino)-7H-pyrrolo[2,3-d]pyrimidine-5-carbonitrile]	active and selective	–
Nc1nc(NC2CCCCC2)c2c(C(F)(F)F)c[nH]c2n1 [Compound 70, N^4-Cyclohexyl-5-(trifluoromethyl)-7H-pyrrolo[2,3-d]pyrimidine-2,4-diamine]	attenuated all IKKα inhibitory activity	–
N#Cc1c[nH]c2nc(N)nc(NCc3ccccc3)c12 [Compound 14, 2-Amino-4-(benzylamino)-7H-pyrrolo[2,3-d]pyrimidine-5-carbonitrile]	–	Ki (IKKβ; supplementary CSV, read-out: IKKbeta Ki (?M)): 19 µM
N#Cc1c[nH]c2nc(N)nc(N3CCC(O)C3)c12 (stereo in doubt) [Compound 25, (R)-2-Amino-4-(3-hydroxypyrrolidin-1-yl)-7H-pyrrolo[2,3-d]pyrimidine-5-carbonitrile]	active and selective against IKKα	–
